Where two headings read alike, the source gives them in different places.
Columns and labels:
mouse = experiment: Acute toxicity, mouse; assay type: in vivo
Description: (§1) The acute toxicity of the metal salt of CB3A and of CK3A was examined by orally or peritoneally administrating an aqueous solution or dispersion thereof the results are shown in Table 2.
(§2) a . . . per os (oral administration)
(§3) b . . . intraperitoneal injection

Acidity (pKa) of CB3A = assay type: physicochemical
[1] = Absorbability and effect (statement in words)
[2] = Stability, 5 weeks at 45° C. and humidity of 80% (HPLC remaining rate); assay type: physicochemical; conditions: after 5 weeks, humidity of 80%, 50400 min
Protocol: One gram each of CB3A, CK3A and various metal salts thereof was placed in a beaker and the beaker was allowed to stand for 5 weeks in a constant temperature and humidity bath controlled at a temperature of 45° C. and a humidity of 80%. After 5 weeks, a remaining rate of the compound was analyzed quantitatively with a high performance liquid chromatography "Tri rotar" manufactured by Nippon Bunko K. K. (Japan).
A0 = initial amount of the compound prior to standing in the constan
temperature and humidity bath
A1 = final amount of the compound after 5 weeks

[3] = Water solubility, hygroscopic property and stability (statements in words); assay type: physicochemical; conditions: listed as CB3K
synthesis of cholesterol = conditions: in words; Japanese Patent Application No. 165490/1983, J. Antibiotics 38, 328-332 (1985); cited from earlier work
serum cholesterol = experiment: Serum cholesterol lowering activity, oral, rabbit, 5 successive days; assay type: in vivo; conditions: two times a day, 5 days
Protocol: (1) Serum cholesterol lowering activity the metal salt of organic phosphate according to the present invention was orally administered to a rabbit (body weight of about 3 Kg) two times a day (at 9:00 a.m. and 4:00 p.m.) for 5 successive days. After 5 days, blood was sampled and the total cholesterol value in serum was measured in a conventional manner.

rat = experiment: Acute toxicity, rat; assay type: in vivo
Description: as §1, §2, §3

For CCC(C)C(=O)OC1CCC=C2C=CC(C)C(CCC(CC(O)CC(=O)O)OP(=O)(O)O)C21 (stereo not shown) [CB3A, reference compound], the LD50 (mouse; intraperitoneal injection) was > 500 mg/kg, the LD50 (mouse; per os (oral administration)) was > 2000 mg/kg and the pKa (Acidity (pKa) of CB3A; carboxylic acid group in CB3A molecule, read-out: pKa3) was 7.1. For the same molecule, the pKa (Acidity (pKa) of CB3A; phosphoric acid group in CB3A molecule, read-out: pKa1) was 2.2, the pKa (Acidity (pKa) of CB3A; phosphoric acid group in CB3A molecule, read-out: pKa2) was 5 and the absorbability and effect [1] was “unsatisfactory”. For the same molecule, the Remaining rate [2] was 14%, the stability [3] was “unstable” and the “activity of inhibiting the synthesis of cholesterol” value (synthesis of cholesterol) was “strong activity of inhibiting the synthesis of cholesterol”. The “Total Serum cholesterol lowering rate” value (serum cholesterol; 1.5 mg/kg/day) was 9.4%, the “Total Serum cholesterol lowering rate” value (serum cholesterol; 6 mg/kg/day) was 23.9% and the LD50 (rat; intraperitoneal injection) was > 500 mg/kg. The LD50 (rat; per os (oral administration)) was > 2000 mg/kg.

— patent US4701448A, “Metal salt of organic phosphate and an antihyperlipemic agent containing the same” (Asahi Denka Kogyo Kabushiki Kaisha, priority 1985, dated 1987)
